Target: Calcitonin gene-related peptide type 1 receptor/Receptor activity-modifying protein 1 (Homo sapiens, UniProt Q16602+O60894)
Test: Displacement of [125I]-hCGRP from human CALCRL/RAMP1 expressed in HEK293 cell membranes

Sequence of Calcitonin gene-related peptide type 1 receptor/Receptor activity-modifying protein 1 (Q16602 whole entry): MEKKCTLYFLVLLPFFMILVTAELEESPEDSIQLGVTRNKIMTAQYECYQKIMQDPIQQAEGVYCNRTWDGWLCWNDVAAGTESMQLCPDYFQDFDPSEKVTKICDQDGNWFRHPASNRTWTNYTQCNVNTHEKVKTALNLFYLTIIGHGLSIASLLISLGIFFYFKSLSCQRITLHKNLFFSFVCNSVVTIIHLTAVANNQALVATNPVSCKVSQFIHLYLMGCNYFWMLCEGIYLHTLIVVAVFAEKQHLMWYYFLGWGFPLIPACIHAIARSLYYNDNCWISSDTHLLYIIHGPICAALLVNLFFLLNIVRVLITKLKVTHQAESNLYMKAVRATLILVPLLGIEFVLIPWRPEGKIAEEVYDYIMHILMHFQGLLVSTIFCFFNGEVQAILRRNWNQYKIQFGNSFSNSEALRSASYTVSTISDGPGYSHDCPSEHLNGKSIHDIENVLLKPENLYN
Sequence of Calcitonin gene-related peptide type 1 receptor/Receptor activity-modifying protein 1 (O60894 whole entry): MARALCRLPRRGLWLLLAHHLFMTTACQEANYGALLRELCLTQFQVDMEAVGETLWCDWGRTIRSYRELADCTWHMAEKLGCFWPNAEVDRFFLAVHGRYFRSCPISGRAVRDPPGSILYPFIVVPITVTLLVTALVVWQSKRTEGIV

Row | SMILES | Ki
1 | C[C@H](c1cc(F)cc(F)c1)N(C/C=C/c1cnc2c(c1)C[C@@]1(C2)C(=O)Nc2ncccc21)C(=O)C1(C(F)(F)F)CC1 [US8552023, 11] | 0.05 nM
2 | Cc1ccc([C@@H](C)N(C/C=C/c2cnc3c(c2)C[C@@]2(C3)C(=O)Nc3ncccc32)C(=O)C(C)(C)C)cc1F [US8552023, 13] | 0.13 nM

— BindingDB's records for doi:10.1016/j.bmcl.2013.11.027 (Merck, 2013)
